According to PubChem BioAssay (NCI):
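1) Cells in 96-well plates. 2) Compound, 48 h, 5 concentrations. 3) Linear interpolation between surrounding doses. 4) Unreached endpoint = highest concentration. TGI denotes the concentration required for complete inhibition of growth.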

Tests used:
Test in all cases: NCI tumour cell line growth inhibition, 48 h
KM12 colon = tested on: KM12 colon
LXFL 529 NSCLC = tested on: LXFL 529 NSCLC
NCI-H23 lung = tested on: NCI-H23 lung
DMS 273 small cell lung = tested on: DMS 273 small cell lung
SNB-19 CNS = tested on: SNB-19 CNS
HL-60(TB) leukemia = tested on: HL-60(TB) leukemia
A498 renal = tested on: A498 renal
SF-268 CNS = tested on: SF-268 CNS
UACC-257 melanoma = tested on: UACC-257 melanoma
M14 melanoma = tested on: M14 melanoma
SK-MEL-28 melanoma = tested on: SK-MEL-28 melanoma
OVCAR-8 ovarian = tested on: OVCAR-8 ovarian
OVCAR-5 ovarian = tested on: OVCAR-5 ovarian
DMS 114 small cell lung = tested on: DMS 114 small cell lung
SF-539 CNS = tested on: SF-539 CNS
DLD-1 colon = tested on: DLD-1 colon
KM20L2 colon = tested on: KM20L2 colon
SNB-75 CNS = tested on: SNB-75 CNS
SF-295 CNS = tested on: SF-295 CNS
COLO 205 colon = tested on: COLO 205 colon
K-562 leukemia = tested on: K-562 leukemia
UACC-62 melanoma = tested on: UACC-62 melanoma
HCT-116 colon = tested on: HCT-116 colon
U251 CNS = tested on: U251 CNS
NCI-H522 lung = tested on: NCI-H522 lung
OVCAR-4 ovarian = tested on: OVCAR-4 ovarian
ACHN renal = tested on: ACHN renal
HCT-15 colon = tested on: HCT-15 colon
SK-MEL-5 melanoma = tested on: SK-MEL-5 melanoma
SR leukemia = tested on: SR leukemia
SN12C renal = tested on: SN12C renal
786-0 renal = tested on: 786-0 renal
SNB-78 CNS = tested on: SNB-78 CNS
RXF 393 renal = tested on: RXF 393 renal
A549 NSCLC = tested on: A549 NSCLC
CCRF-CEM leukemia = tested on: CCRF-CEM leukemia
IGROV1 ovarian = tested on: IGROV1 ovarian
EKVX NSCLC = tested on: EKVX NSCLC
NCI-H460 lung = tested on: NCI-H460 lung
LOX IMVI melanoma = tested on: LOX IMVI melanoma
HT29 colon = tested on: HT29 colon
SW-620 colon = tested on: SW-620 colon
MOLT-4 leukemia = tested on: MOLT-4 leukemia
NCI-H226 lung = tested on: NCI-H226 lung
RPMI-8226 leukemia = tested on: RPMI-8226 leukemia
HOP-62 NSCLC = tested on: HOP-62 NSCLC
HOP-92 NSCLC = tested on: HOP-92 NSCLC
M19-MEL melanoma = tested on: M19-MEL melanoma
HOP-18 NSCLC = tested on: HOP-18 NSCLC
OVCAR-3 ovarian = tested on: OVCAR-3 ovarian
SK-MEL-2 melanoma = tested on: SK-MEL-2 melanoma
UO-31 renal = tested on: UO-31 renal
MALME-3M melanoma = tested on: MALME-3M melanoma
SK-OV-3 ovarian = tested on: SK-OV-3 ovarian
HCC-2998 colon = tested on: HCC-2998 colon

## COc1ccc(/C=C2\N=C(c3ccccc3)N(Nc3nnc(NN4C(=O)/C(=C/c5ccc(OC)cc5)N=C4c4ccccc4)c4ccccc34)C2=O)cc1
KM12 colon
  TGI: 54.3 µM
LXFL 529 NSCLC
  TGI: > 100 µM
NCI-H23 lung
  TGI: > 100 µM
DMS 273 small cell lung
  TGI: > 100 µM
SNB-19 CNS
  TGI: > 100 µM
HL-60(TB) leukemia
  TGI: 61.4 µM
A498 renal
  TGI: > 100 µM
SF-268 CNS
  TGI: > 100 µM
UACC-257 melanoma
  TGI: > 100 µM
M14 melanoma
  TGI: > 100 µM
SK-MEL-28 melanoma
  TGI: > 100 µM
OVCAR-8 ovarian
  TGI: > 100 µM
OVCAR-5 ovarian
  TGI: > 100 µM
DMS 114 small cell lung
  TGI: > 100 µM
SF-539 CNS
  TGI: > 100 µM
DLD-1 colon
  TGI: > 100 µM
KM20L2 colon
  TGI: > 100 µM
SNB-75 CNS
  TGI: > 100 µM
SF-295 CNS
  TGI: > 100 µM
COLO 205 colon
  TGI: > 100 µM
K-562 leukemia
  TGI: > 100 µM
UACC-62 melanoma
  TGI: > 100 µM
HCT-116 colon
  TGI: > 100 µM
U251 CNS
  TGI: > 100 µM
NCI-H522 lung
  TGI: > 100 µM
OVCAR-4 ovarian
  TGI: > 100 µM
ACHN renal
  TGI: > 100 µM
HCT-15 colon
  TGI: > 100 µM
SK-MEL-5 melanoma
  TGI: > 100 µM
SR leukemia
  TGI: 90.5 µM
SN12C renal
  TGI: > 100 µM
786-0 renal
  TGI: > 100 µM
SNB-78 CNS
  TGI: > 100 µM
RXF 393 renal
  TGI: > 100 µM
A549 NSCLC
  TGI: > 100 µM
CCRF-CEM leukemia
  TGI: > 100 µM
IGROV1 ovarian
  TGI: > 100 µM
EKVX NSCLC
  TGI: > 100 µM
NCI-H460 lung
  TGI: > 100 µM
LOX IMVI melanoma
  TGI: 43 µM
HT29 colon
  TGI: > 100 µM
SW-620 colon
  TGI: > 100 µM
MOLT-4 leukemia
  TGI: > 100 µM
NCI-H226 lung
  TGI: > 100 µM
RPMI-8226 leukemia
  TGI: > 100 µM
HOP-62 NSCLC
  TGI: > 100 µM
HOP-92 NSCLC
  TGI: > 100 µM
M19-MEL melanoma
  TGI: > 100 µM
HOP-18 NSCLC
  TGI: > 100 µM

## CCN(CC)CCN=Cc1c(O)c(O)c(C(C)C)c2cc(C)c(-c3c(C)cc4c(C(C)C)c(O)c(O)c(C=NCCN(CC)CC)c4c3O)c(O)c12
KM12 colon
  TGI: 3.92 µM
LXFL 529 NSCLC
  TGI: 3.11 µM
NCI-H23 lung
  TGI: 8.04 µM
SNB-19 CNS
  TGI: 8.86 µM
SF-268 CNS
  TGI: 34.6 µM
OVCAR-3 ovarian
  TGI: 4.61 µM
UACC-257 melanoma
  TGI: 18.8 µM
M14 melanoma
  TGI: 4.06 µM
SK-MEL-28 melanoma
  TGI: 12.5 µM
DMS 114 small cell lung
  TGI: 3.76 µM
SF-539 CNS
  TGI: 5.65 µM
SNB-75 CNS
  TGI: 22.6 µM
SK-MEL-2 melanoma
  TGI: 5.17 µM
SF-295 CNS
  TGI: 4.45 µM
COLO 205 colon
  TGI: 14.5 µM
K-562 leukemia
  TGI: 3 µM
UACC-62 melanoma
  TGI: 6.03 µM
HCT-116 colon
  TGI: 6.02 µM
NCI-H522 lung
  TGI: 3.4 µM
OVCAR-4 ovarian
  TGI: 10.1 µM
ACHN renal
  TGI: 8.37 µM
UO-31 renal
  TGI: 8.8 µM
SNB-78 CNS
  TGI: 5.6 µM
RXF 393 renal
  TGI: 5.31 µM
CCRF-CEM leukemia
  TGI: 1.45 µM
IGROV1 ovarian
  TGI: 12.5 µM
NCI-H460 lung
  TGI: 13.7 µM
MALME-3M melanoma
  TGI: 17 µM
HT29 colon
  TGI: 3.83 µM
SK-OV-3 ovarian
  TGI: 12.4 µM
MOLT-4 leukemia
  TGI: 4.36 µM
RPMI-8226 leukemia
  TGI: 6.16 µM
HOP-62 NSCLC
  TGI: 8.13 µM
HCC-2998 colon
  TGI: 9.62 µM
HOP-92 NSCLC
  TGI: 7.96 µM
M19-MEL melanoma
  TGI: 14.1 µM
